Structures can show the parent of a compound that is named as a salt. Values belong to the compound of their own block, whether it stands above or below them.
How the values were obtained:
[1] = Geometric particle size distribution by laser diffraction (Sympatec HELOS, RODOS dry dispersion); assay type: physicochemical; conditions: micronized with Model 00 Jet-O-Mizer Air Jet Mill
Method: PSD was calculated using Fraunhofer theory using the Sympatec laser diffractor. […] Measurements were taken every 5 msec […] following powder dispersion. Measurements that were between 5-25% optical density were averaged to determine particle size distribution. Data was analyzed using HELOS software version 5.6.0.0 with an HRLD model to convert the scattering pattern to a particle size distribution.

[2] = Aerosol performance of physical blends, Next Generation Impactor, medium resistance RS01 DPI; assay type: physicochemical; conditions: RS01 device
Method: (§1) The aerosol performance of the physically blended mixtures was determined using cascade impaction, specifically as Next Generation Impactor, as prescribed by the United States Pharmacopeia chapter 601. For these studies, a medium resistance Model 7 RS01 dry powder inhaler (DPI) manufactured by Berry Global Osnago was utilized. 20 mg of the physical blends (1:0.5 CFZ-AMK, 1:2 CFZ-AMK, 1:4 CFZ-AMK, or 1:8 CFZ-AMK) or 10 mg of air jet milled clofazimine or air jet milled amikacin sulfate alone was loaded into a size 3 hydroxypropyl methylcellulose (HPMC) capsule. The device was actuated at an airflow rate to induce a 4 kPa pressure drop (i.e., 80 L/min) or 2 kPa pressure drop (i.e., 56.6 L/min) through the device for period of time sufficient to draw 4 L of air through the apparatus. To reduce particle bounce and re-entrainment, the NGI plates were coated with 1% (v/v) glycerin in ethanol and allowed to dry prior to performing the experiment. After actuation, powder was collected from the capsule, device, induction port, and stages of the Next Generation Impactor by adding a volume of 75/25 acetonitrile/water containing 0.16 mg/mL polysorbate 80 that was sufficient to dissolve the deposited powder. Phase separation of the solution into an organic phase containing clofazimine and an aqueous phase containing amikacin was induced by adding a volume of 5 M ammonium acetate equivalent to 16.7% of the original solution volume. The organic and aqueous phases were analyzed using high pressure liquid chromatography and concentration of each drug was quantified using a previously prepared standard curve.
(§2) Stage 1-7 cut-off diameters were determined using equation 1 and MOC cut-off diameters were determined using equation 2.
(§3) where D50,Q is the cutoff diameter at the flow rate, Q, and the subscript, n, refers to the archival reference value for Qn=60 L/min, and the values for the exponent, x, were determined by the archival NGI stage cut size-flow rate calculations, as determined by Marple et al.
(§4) The emitted fraction (EF) was calculated as the total drug emitted from the device as a percentage of the total mass of drug collected (i.e., recovered dose). The respirable fraction that was less than 5 μm aerodynamic diameter and less than 3 μm aerodynamic diameter corresponded to the percentage of the recovered dose predicted to have the aerodynamic diameter below 5 μm and 3 μm. The respirable fraction values were interpolated from a graph with the cumulative percentage of the emitted dose deposited downstream from an NGI stage as the ordinate and the particle cutoff size of that stage as the abscissa. For each sample, the mass median aerodynamic diameter (MMAD), which represents the mass-based median point of the aerodynamic particle size distribution (APSD), and geometric standard deviation (GSD), which represents the spread of the APSD, were determined by plotting the cumulative percentage of mass less than the stated aerodynamic size cut (expressed as Probits) against the aerodynamic diameter (log scale). Distributions were log normal. A linear regression was performed to determine the aerodynamic diameters corresponding to the 50% percentile (Probit 5) to determine the MMAD, and the aerodynamic diameters corresponding the 15.87% percentile (Probit 4) and 84.13% percentile (Probit 6) to calculate the GSD. The results of this analysis are shown in Table 5-8 and FIG. 2, and are presented as mean±standard deviation (n=3)

[3] = Aerosol performance of clofazimine and amikacin co-administered from dual chamber Dualhaler DPI, Next Generation Impactor; assay type: physicochemical; conditions: Dualhaler device
[4] = Aerosol performance of composite spray dried particles, Next Generation Impactor, medium resistance RS01 DPI; assay type: physicochemical; conditions: spray dried powder, RS01 device
Method: as §1, with “the composite spray dried particles” for “the physically blended mixtures”, “the spray dried powders (1:2” for “the physical blends (1:0.5 CFZ-AMK, 1:2”, “or spray dried” for “or air jet milled”, “capsule. For these studies, spray dried clofazimine was not tested due to the extremely low powder yield and the tendency of the particles to dry as large needle structures.” for “capsule.”
as §2, §3
as §4, with “Tables 11-14” for “Table 5-8”, “11,” for “2,”

[5] = system: Mab-infected THP-1 macrophages; test: In vitro efficacy study, micronized CFZ particles added to media containing AMK; assay type: cell-based, Mycobacterium abscessus (Mab)
[6] = Solubility of the drug substances in solvents; assay type: physicochemical; conditions: ethanol and isopropanol, organic solvent or mixture
[7] = cited from earlier work
[8] = in vivo, po; cited from earlier work
[9] = in vivo, po; cited from earlier work; remark: listed apart in the source
[10] = 2 kPa pressure drop, amikacin component (Table 7)
[11] = 4 kPa pressure drop, amikacin component
[12] = 2 kPa pressure drop, amikacin component (Table 17)
[13] = 2 kPa pressure drop, amikacin component as titled (Table 8, reference Jet milled CFZ alone)
[14] = 4 kPa pressure drop, clofazimine component
[15] = 2 kPa pressure drop, clofazimine component
[16] = 4 kPa pressure drop, clofazimine component (Table 12)
[17] = 2 kPa pressure drop, amikacin component as titled (Table 18, reference Jet milled CFZ alone)
[18] = 4 kPa pressure drop, clofazimine component as titled (Table 13, reference Spray dried AMK-S alone)

X50 particle diameter [1]: 4.04 μm | X90 particle diameter [1]: 7.72 μm
SMILES: NCC[C@H](O)C(=O)NC1C[C@H](N)[C@@H](O[C@H]2O[C@H](CN)[C@H](O)[C@H](O)[C@H]2O)[C@H](O)[C@H]1O[C@H]1O[C@H](CO)[C@@H](O)[C@H](N)[C@H]1O (stereo partly drawn) [AMK sulfate, (2S)-4-amino-N-[(2S,3S,4R,5S)-5-amino-2-[(2S,3R,4S,5S,6R)-4-amino-3,5-dihydroxy-6-(hydroxymethyl)oxan-2-yl]oxy-4-[(2R,3R,4S,5R,6R)-6-(aminomethyl)-3,4,5-trihydroxy-oxan-2-yl]oxy-3-hydroxy-cyclohexyl]-2-hydroxybutanamide]

EF (emitted fraction) [2, 10]: 77.2 ± 11.2% | MMAD [2, 10]: 8.23 ± 0.57 μm | RF < 3 μm [2, 10]: 30.4 ± 3.4% | RF < 5 μm [2, 10]: 48.3 ± 3.8% | EF (emitted fraction) [2, 11]: 82.1 ± 1.2% | MMAD [2, 11]: 9.07 ± 1.76 μm | RF < 3 μm [2, 11]: 28.2 ± 4.9% | RF < 5 μm [2, 11]: 40.8 ± 7.2% | EF (emitted fraction) [3, 12]: 14.1 ± 23.7% | RF < 3 μm [3, 12]: 15.5 ± 2.4% | RF < 5 μm [3, 12]: 23.4 ± 4.6% | EF (emitted fraction) [3, 11]: 47.8 ± 13.8% | RF < 3 μm [3, 11]: 22.6 ± 1.4% | RF < 5 μm [3, 11]: 28.6 ± 1.5%
SMILES: NCC[C@H](O)C(=O)NC1C[C@H](N)[C@@H](O[C@H]2O[C@H](CN)[C@H](O)[C@H](O)[C@H]2O)[C@H](O)[C@H]1O[C@H]1O[C@H](CO)[C@@H](O)[C@H](N)[C@H]1O (stereo partly drawn) [Jet milled AMK-S alone, (2S)-4-amino-N-[(2S,3S,4R,5S)-5-amino-2-[(2S,3R,4S,5S,6R)-4-amino-3,5-dihydroxy-6-(hydroxymethyl)oxan-2-yl]oxy-4-[(2R,3R,4S,5R,6R)-6-(aminomethyl)-3,4,5-trihydroxy-oxan-2-yl]oxy-3-hydroxy-cyclohexyl]-2-hydroxybutanamide]

EF (emitted fraction) [2, 13]: 80.7 ± 9.7% | MMAD [2, 13]: 10.08 ± 7.79 μm | RF < 3 μm [2, 13]: 37.5 ± 18.2% | RF < 5 μm [2, 13]: 51.0 ± 19.0% | EF (emitted fraction) [2, 14]: 76.2 ± 4.1% | MMAD [2, 14]: 5.36 ± 0.53 μm | RF < 3 μm [2, 14]: 47.4 ± 3.7% | RF < 5 μm [2, 14]: 58.8 ± 4.7% | EF (emitted fraction) [4, 15]: 80.7 ± 9.7% | MMAD [4, 15]: 10.08 ± 7.79 μm | RF < 3 μm [4, 15]: 37.5 ± 18.2% | RF < 5 μm [4, 15]: 51.0 ± 19.0% | EF (emitted fraction) [4, 16]: 76.2 ± 4.1% | MMAD [4, 16]: 5.36 ± 0.53 μm | RF < 3 μm [4, 16]: 47.4 ± 3.7% | RF < 5 μm [4, 16]: 58.8 ± 4.7% | EF (emitted fraction) [3, 17]: 41.2 ± 4.1% | RF < 3 μm [3, 17]: 19.8 ± 2.2% | RF < 5 μm [3, 17]: 26.1 ± 3.1% | EF (emitted fraction) [3, 14]: 44.9 ± 16.1% | RF < 3 μm [3, 14]: 25.1 ± 10.9% | RF < 5 μm [3, 14]: 30.8 ± 12.6%
SMILES: CC(C)N=c1cc2n(-c3ccc(Cl)cc3)c3ccccc3nc-2cc1Nc1ccc(Cl)cc1 [Jet milled CFZ alone, N,5-bis(4-chlorophenyl)-3-(1-methylethylimino)-5H-phenazin-2-amine]
Intracellular drug accumulation with increasing doses ([5]; increasing doses of micronized CFZ): notable increase in intracellular drug accumulation | Change in intracellular bacterial burden with increasing doses ([5]; increasing doses of micronized CFZ, with AMK): no statistically significant changes | Intracellular Mab bacilli compared to the use of AMK alone ([5]; micronized CFZ particles added to media containing 40 μg/mL AMK): statistically significant reduction

EF (emitted fraction) [4, 11]: 61.9 ± 8.6% | MMAD [4, 11]: 6.23 ± 0.97 μm | RF < 3 μm [4, 11]: 44.5 ± 3.6% | RF < 5 μm [4, 11]: 50.8 ± 5.8% | EF (emitted fraction) [4, 18]: 43.3 ± 8.7% | MMAD [4, 18]: 11.29 ± 2.93 μm | RF < 3 μm [4, 18]: 31.8 ± 6.9% | RF < 5 μm [4, 18]: 37.6 ± 6.2%
SMILES: NCC[C@H](O)C(=O)NC1C[C@H](N)[C@@H](O[C@H]2O[C@H](CN)[C@H](O)[C@H](O)[C@H]2O)[C@H](O)[C@H]1O[C@H]1O[C@H](CO)[C@@H](O)[C@H](N)[C@H]1O (stereo partly drawn) [Spray dried AMK-S alone, (2S)-4-amino-N-[(2S,3S,4R,5S)-5-amino-2-[(2S,3R,4S,5S,6R)-4-amino-3,5-dihydroxy-6-(hydroxymethyl)oxan-2-yl]oxy-4-[(2R,3R,4S,5R,6R)-6-(aminomethyl)-3,4,5-trihydroxy-oxan-2-yl]oxy-3-hydroxy-cyclohexyl]-2-hydroxybutanamide]

X50 particle diameter [1]: 2.39 μm | X90 particle diameter [1]: 5.29 μm | solubility [6]: ≤ 800 µg/mL
SMILES: CC(C)N=c1cc2n(-c3ccc(Cl)cc3)c3ccccc3nc-2cc1Nc1ccc(Cl)cc1 [clofazimine, N,5-bis(4-chlorophenyl)-3-(1-methylethylimino)-5H-phenazin-2-amine]
Solubility in DMF and benzene ([7]; Merck Index): soluble | Solubility in acetone and ethyl acetate ([7]; Merck Index): sparingly soluble | Solubility in chloroform ([7]; Merck Index): 15 parts | Solubility in ethanol ([7]; Merck Index): 700 parts | Solubility in ether ([7]; Merck Index): 1000 parts | Solution concentration that can be formed in methanol ([7]; Sabnis et al., 2015): 0.1% | Solubility in water [7]: practically insoluble | Patient population reporting at least one adverse drug effect [8]: 47.5% | Duration of administration necessary to reach steady-state concentrations [9]: At least 30 days

— patent US20240299379A1, “COMPOSITIONS OF CLOFAZIMINE AND AMIKACIN FOR PULMONARY ADMINISTRATION IN THE TREATMENT OF RESPIRATORY DISEASES” (BOARD OF REGENTS, THE UNIVERSITY OF TEXAS SYSTEM, priority 2021, published 2024)
